# From patent US7910751B2, “Heterocyclidene acetamide derivative” (Mochida Pharmaceutical Co., Ltd., priority 2005, dated 2011)
# Target: T1, human TRPV1 (Homo sapiens, UniProt Q8NER1)
# T1 construct: expressed in transfected cells; host or cells: CHO-K1
# Test: Measurement of capsaicin-induced Ca influx in human TRPV1 transformed CHO cell line using FDSS-6000
# Format: cell-based
# Conditions: concentration at which the capsaicin concentration-reaction curve is shifted two times to the right, human TRPV1 transformed CHO cells
# T1 sequence (Q8NER1 whole entry): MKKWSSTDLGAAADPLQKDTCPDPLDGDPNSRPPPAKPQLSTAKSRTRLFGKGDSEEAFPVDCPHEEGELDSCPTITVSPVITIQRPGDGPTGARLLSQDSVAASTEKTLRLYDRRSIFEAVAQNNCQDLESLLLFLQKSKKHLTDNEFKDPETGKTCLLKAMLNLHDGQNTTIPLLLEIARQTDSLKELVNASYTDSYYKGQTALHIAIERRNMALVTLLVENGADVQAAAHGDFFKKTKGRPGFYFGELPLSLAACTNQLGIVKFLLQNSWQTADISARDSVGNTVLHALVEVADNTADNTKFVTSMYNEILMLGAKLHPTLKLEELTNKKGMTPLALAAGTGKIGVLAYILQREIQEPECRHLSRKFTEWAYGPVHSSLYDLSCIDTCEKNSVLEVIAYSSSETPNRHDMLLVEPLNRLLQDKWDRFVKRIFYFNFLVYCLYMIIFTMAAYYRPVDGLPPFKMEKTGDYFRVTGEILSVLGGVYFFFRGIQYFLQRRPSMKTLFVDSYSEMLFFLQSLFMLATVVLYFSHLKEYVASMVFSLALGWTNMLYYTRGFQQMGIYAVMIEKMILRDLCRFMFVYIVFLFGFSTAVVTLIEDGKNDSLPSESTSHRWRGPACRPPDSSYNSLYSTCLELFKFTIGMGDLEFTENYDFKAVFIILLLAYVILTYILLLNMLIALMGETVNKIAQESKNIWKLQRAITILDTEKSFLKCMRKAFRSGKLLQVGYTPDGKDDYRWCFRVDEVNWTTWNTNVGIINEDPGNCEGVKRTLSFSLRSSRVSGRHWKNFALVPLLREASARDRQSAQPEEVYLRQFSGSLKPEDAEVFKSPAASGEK
row,Structure (SMILES),A2 VALUE
1,"O=C(/C=C1\CCN(C(=O)C2CCOCC2)c2cc(C(F)(F)F)ccc21)Nc1ccc2cccnc2c1 [Example 53, (E)-2-(7-trifluoromethyl-2,3-dihydro-1-(4-pyranoyl)quinolin-4(1H)-ylidene)-N-(quinolin-7-yl)acetamide]",A (compounds of the present invention having an A2 value of less than 100 nM are represented by A)
2,"CCn1c(NC(=O)/C=C2\CCCOc3cc(C(F)(F)F)ccc32)nc2ccccc21 [Example 43, (E)-N-(1-ethyl-1H-benzo[d]imidazolo-2-yl)-2-(8-trifluoromethyl-3,4-dihydrobenzo[b]oxepin-5(2H)-ylidene)acetamide]",B (compounds having an A2 value of 100 nM or more are represented by B)
3,"O=C(/C=C1\CCCOc2cc(C(F)(F)F)ccc21)Nc1ccc2c(c1)N(CCO)C(=O)CO2 [Example 234, (E)-2-(8-trifluoromethyl-3,4-dihydrobenzo[b]oxepin-5(2H)-ylidene)-N-(4-(2-hydroxyethyl)-2H-1,4-benzoxazin-3(4H)-on-6-yl)acetamide]",A (compounds of the present invention having an A2 value of less than 100 nM are represented by A)
4,"CC(NC(=O)/C=C1\CCCOc2cc(C(F)(F)F)ccc21)c1ccccn1 (stereo not drawn) [Example 30, (E)-2-(8-trifluoromethyl-3,4-dihydrobenzo[b]oxepin-5(2H)-ylidene)-N-(1-(pyridin-2-yl)ethyl)acetamide]",B (compounds having an A2 value of 100 nM or more are represented by B)
5,"O=C(/C=C1\CCCOc2cc(C(F)(F)F)ccc21)Nc1cccc2cc(O)ccc12 [Example 126, (E)-N-(6-hydroxynaphthalen-1-yl)-2-(8-trifluoromethyl-3,4-dihydrobenzo[b]oxepin-5(2H)-ylidene)acetamide]",A (compounds of the present invention having an A2 value of less than 100 nM are represented by A)
6,"O=C(/C=C1\CCCOc2cc(C(F)(F)F)ccc21)Nc1cccc2c1CCC2O (stereo not drawn) [Example 160, (E)-2-(8-trifluoromethyl-3,4-dihydrobenzo[b]oxepin-5(2H)-ylidene)-N-(indan-1-ol-4-yl)acetamide]",A (compounds of the present invention having an A2 value of less than 100 nM are represented by A)
7,"O=C(/C=C1\CCN(C(=O)C2CCCC2)c2cc(C(F)(F)F)ccc21)Nc1cccc2c1CC(O)CC2 (stereo not drawn) [Example 82, (E)-2-(1-cyclopentanecarbonyl-7-trifluoromethyl-2,3-dihydroquinolin-4(1H)-ylidene)-N-(7-hydroxy-5,6,7,8-tetrahydronaphthalen-1-yl)acetamide]",A (compounds of the present invention having an A2 value of less than 100 nM are represented by A)
8,"CC(=O)N1CCC/C(=C\C(=O)Nc2ccc3cccnc3c2)c2ccc(C(F)(F)F)cc21 [Example 195, (E)-2-(1-acetyl-8-trifluoromethyl-1,2,3,4-tetrahydro-5H-benzo[b]azepin-5-ylidene)-N-(quinolin-7-yl)acetamide]",B (compounds having an A2 value of 100 nM or more are represented by B)
9,"O=C(/C=C1\CCOc2cc(Cl)ccc21)Nc1cccc2c1CC(O)CC2 (stereo not drawn) [Example 208, (E)-2-(7-chloro-chroman-4-ylidene)-N-(7-hydroxy-5,6,7,8-tetrahydronaphthalen-1-yl)acetamide]",A (compounds of the present invention having an A2 value of less than 100 nM are represented by A)
10,"O=C1CCc2cccc(NC(=O)/C=C3\CCCOc4cc(C(F)(F)F)ccc43)c2C1 [Example 61, (E)-2-(8-trifluoromethyl-3,4-dihydrobenzo[b]oxepin-5(2H)-ylidene)-N-(7-oxo-5,6,7,8-tetrahydronaphthalen-1-yl)acetamide]",A (compounds of the present invention having an A2 value of less than 100 nM are represented by A)
11,"O=C(/C=C1\CCCOc2cc(C(F)(F)F)ccc21)Nc1cccc2c1CC(O)CN2 (stereo not drawn) [Example 219, (E)-2-(8-trifluoromethyl-3,4-dihydrobenzo[b]oxepin-5(2H)-ylidene)-N-(3-hydroxy-1,2,3,4-tetrahydroquinolin-5-yl)acetamide]",A (compounds of the present invention having an A2 value of less than 100 nM are represented by A)
12,"O=C(/C=C1\CCCOc2cc(C(F)(F)F)ccc21)NC1CCc2cccnc2C1 (stereo not drawn) [Example 10, (E)-2-(8-trifluoromethyl-3,4-dihydrobenzo[b]oxepin-5(2H)-ylidene)-N-(5,6,7,8-tetrahydroquinolin-7-yl)acetamide]",A (compounds of the present invention having an A2 value of less than 100 nM are represented by A)
13,"CS(=O)(=O)O.O=C(/C=C1\CCCOc2cc(C(F)(F)F)ccc21)Nc1ccc2cccnc2c1 [Example 127, (E)-2-(8-trifluoromethyl-3,4-dihydrobenzo[b]oxepin-5(2H)-ylidene)-N-(quinolin-7-yl)acetamide methanesulfonate]",A (compounds of the present invention having an A2 value of less than 100 nM are represented by A)
14,"CC(C)CC(=O)N1CC/C(=C\C(=O)Nc2cccc3c2CC(O)CC3)c2ccc(C(F)(F)F)cc21 (stereo not drawn) [Example 87, (E)-2-(1-(3-methylbutanoyl)-7-trifluoromethyl-2,3-dihydroquinolin-4(1H)-ylidene)-N-(7-hydroxy-5,6,7,8-tetrahydronaphthalen-1-yl)acetamide]",A (compounds of the present invention having an A2 value of less than 100 nM are represented by A)
15,"O=C(/C=C1\CCN(C2CCCCC2)c2cc(C(F)(F)F)ccc21)Nc1ccc2cccnc2c1 [Example 97, (E)-2-(7-trifluoromethyl-2,3-dihydro-1-cyclohexylquinolin-4(1H)-ylidene)-N-(quinolin-7-yl)acetamide]",A (compounds of the present invention having an A2 value of less than 100 nM are represented by A)
16,"O=C(/C=C1\CCCOc2cc(C(F)(F)F)ccc21)Nc1cccc2c1CC(O)CC2 (stereo not drawn) [Example 63, (E)-2-(8-trifluoromethyl-3,4-dihydrobenzo[b]oxepin-5-(2H)-ylidene)-N-(7-hydroxy-5,6,7,8-tetrahydronaphthalen-1-yl)acetamide]",A (compounds of the present invention having an A2 value of less than 100 nM are represented by A)
17,"Cc1nc(-c2ccc(Cl)cc2)sc1CNC(=O)/C=C1\CCCOc2cc(C(F)(F)F)ccc21 [Example 39, (E)-N-((2-(4-chlorophenyl)-4-methylthiazol-5-yl)methyl)-2-(8-trifluoromethyl-3,4-dihydrobenzo[b]oxepin-5(2H)-ylidene)acetamide]",B (compounds having an A2 value of 100 nM or more are represented by B)
18,"CC(C)(C)c1ccc2c(c1)OCC/C2=C\C(=O)NC1CCc2cccnc2C1 (stereo not drawn) [Example 3, (E)-2-(7-tert-butyl-chroman-4-ylidene)-N-(5,6,7,8-tetrahydroquinolin-7-yl)acetamide]",A (compounds of the present invention having an A2 value of less than 100 nM are represented by A)
19,"CC(C)(C)CC(=O)N1CC/C(=C\C(=O)Nc2ccc3cccnc3c2)c2ccc(C(F)(F)F)cc21 [Example 76, (E)-2-(1-(3,3-dimethylbutanoyl)-7-trifluoromethyl-2,3-dihydroquinolin-4(1H)-ylidene)-N-(quinolin-7-yl)acetamide]",A (compounds of the present invention having an A2 value of less than 100 nM are represented by A)
20,"O=C(/C=C1\CCOc2ccccc21)Nc1cccc2cnccc12 [Example 2, (E)-2-(chroman-4-ylidene)-N-(isoquinolin-5-yl)acetamide]",B (compounds having an A2 value of 100 nM or more are represented by B)
21,"O=C(/C=C1\CCCOc2cc(C(F)(F)F)ccc21)Nc1ccc2c(c1)OCCCO2 [Example 142, (E)-2-(8-trifluoromethyl-3,4-dihydrobenzo[b]oxepin-5(2H)-ylidene)-N-(3,4-dihydro-2H-benzo[b]dioxepin-7-yl)acetamide]",A (compounds of the present invention having an A2 value of less than 100 nM are represented by A)
22,"O=C(/C=C1\CCCOc2cc(C(F)(F)F)ccc21)NCc1ccc(-c2csnn2)cc1 [Example 37, (E)-2-(8-trifluoromethyl-3,4-dihydrobenzo[b]oxepin-5(2H)-ylidene)-N-(4-(1,2,3-thiadiazolo-4-yl)phenylmethyl)acetamide]",B (compounds having an A2 value of 100 nM or more are represented by B)
23,"CCCCC(=O)N1CC/C(=C\C(=O)Nc2cccc3c2CC(O)CN3)c2ccc(C(F)(F)F)cc21 (stereo not drawn) [Example 108, (E)-2-(7-trifluoromethyl-2,3-dihydro-1-pentanoylquinolin-4(1H)-ylidene)-N-(3-hydroxy-1,2,3,4-tetrahydroquinolin-5-yl)acetamide]",A (compounds of the present invention having an A2 value of less than 100 nM are represented by A)
24,"O=C(/C=C1\CCN(c2cccnc2)c2cc(C(F)(F)F)ccc21)Nc1ccc2cccnc2c1 [Example 58, (E)-2-(7-trifluoromethyl-2,3-dihydro-1-(pyridin-3-yl)quinolin-4(1H)-ylidene)-N-(quinolin-7-yl)acetamide]",A (compounds of the present invention having an A2 value of less than 100 nM are represented by A)
25,"CCCCC(=O)N1CC/C(=C\C(=O)Nc2cccc3c2CC(O)C(=O)N3)c2ccc(C(F)(F)F)cc21 (stereo not drawn) [Example 107, (E)-2-(7-trifluoromethyl-2,3-dihydro-1-pentanoylquinolin-4(1H)-ylidene)-N-(3,4-dihydro-3-hydroxy(1H)quinolin-2-on-5-yl)acetamide]",A (compounds of the present invention having an A2 value of less than 100 nM are represented by A)
26,"CC(=O)N1CC/C(=C\C(=O)Nc2ccc3cccnc3c2)c2ccc(C(F)(F)F)cc21 [Example 48, (E)-2-(1-acetyl-7-trifluoromethyl-2,3-dihydroquinolin-4(1H)-ylidene)-N-(quinolin-7-yl)acetamide]",A (compounds of the present invention having an A2 value of less than 100 nM are represented by A)
27,"O=C(/C=C1\CCOc2cc(C(F)(F)F)ccc21)Nc1cccc2c1CC(O)CC2 (stereo not drawn) [Example 72, (E)-2-(7-trifluoromethyl-chroman-4-ylidene)-N-(7-hydroxy-5,6,7,8-tetrahydronaphthalen-1-yl)acetamide]",A (compounds of the present invention having an A2 value of less than 100 nM are represented by A)
